Experiments:
[1] = test system: MDA-MB-231 cells; test: Cell proliferation assay (CellTiter-Glo), MDA-MB-231; type: cell-based; conditions: Homo sapiens, MDA-MB-231, 72 h, 72 h treatment, Celltiter-Glo luminescence
How it was run: (§1)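 Compounds tested over ten concentrations ([…]) for 72 h on EVSA-T cells in MEM/10% FBS and MDA-MB-231 cells in RPMI-1640/10% FBS, seeded at 10000/well. Luminescent CellTiter-Glo readout; IC50 fitted after normalisation to controls.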

[2] = test system: EVSA-T cells; test: Cell proliferation assay (CellTiter-Glo), EVSA-T; type: cell-based; conditions: Homo sapiens, EVSA-T, 72 h, 72 h treatment, Celltiter-Glo luminescence
How it was run: as §1

SMILES | IC50 [1] [nM] | IC50 [2] [nM]
C[C@@H]1CN(CC(=O)N2CC(C)(C)c3c2cc(Cc2ccc(F)cc2)c2nn([C@@H]4CCOC4)c(=O)n32)[C@@H](CN2CCOC[C@H]2C)CN1 [Compound 228, 4-(4-fluorobenzyl)-8,8-dimethyl-6-(2-((2R,5R)-5-methyl-2-(((R)-3-methylmorpholino)methyl)piperazin-1-yl)acetyl)-2-((R)-tetrahydrofuran-3-yl)-2,6,7,8-tetrahydro-1H-pyrrolo[2,3-e][1,2,4]triazolo[4,3-a]pyridin-1-one] | 9 | 2
C[C@@H]1CN(CC(=O)N2CC(C)(C)c3c2cc(Cc2ccc(F)cc2)c2ncc(C#N)n32)[C@@H](CN2CCOC[C@H]2C)CN1 [Compound 111, 4-(4-fluorobenzyl)-8,8-dimethyl-6-(2-((2R,5R)-5-methyl-2-(((R)-3-methylmorpholino)methyl)piperazin-1-yl)acetyl)-7,8-dihydro-6H-imidazo[1,2-a]pyrrolo[2,3-e]pyridine-1-carbonitrile] | 42 | 2
C[C@@H]1CN(CC(=O)N2CC(C)(C)c3c2cc(Cc2ccc(F)cc2)c2nn(CC(C)(C)O)c(=O)n32)[C@@H](CN2CCN(C3COC3)C[C@H]2C)CN1 [Compound 267, 4-(4-fluorobenzyl)-2-(2-hydroxy-2-methylpropyl)-8,8-dimethyl-6-(2-((2R,5R)-5-methyl-2-(((R)-2-methyl-4-(oxetan-3-yl)piperazin-1-yl)methyl)piperazin-1-yl)acetyl)-2,6,7,8-tetrahydro-1H-pyrrolo[2,3-e][1,2,4]triazolo[4,3-a]pyridin-1-one] | 34 | 19.6
COCC(COC)n1nc2c(Cc3ccc(F)cc3)cc3c(n2c1=O)C(C)(C)CN3C(=O)CN1C[C@@H](C)NC[C@@H]1CN1CCOC[C@H]1C [Compound 261, 2-(1,3-dimethoxypropan-2-yl)-4-(4-fluorobenzyl)-8,8-dimethyl-6-(2-((2R,5R)-5-methyl-2-(((R)-3-methylmorpholino)methyl)piperazin-1-yl)acetyl)-2,6,7,8-tetrahydro-1H-pyrrolo[2,3-e][1,2,4]triazolo[4,3-a]pyridin-1-one] | 17 | 3.2
C[C@@H]1CN(CC(=O)N2CC(C)(C)c3c2cc(Cc2ccc(F)cc2)c2nn(Cc4ccccn4)c(=O)n32)[C@@H](CN2CCOC[C@H]2C)CN1 [Compound 192, 4-(4-fluorobenzyl)-8,8-dimethyl-6-(2-((2R,5R)-5-methyl-2-(((R)-3-methylmorpholino)methyl)piperazin-1-yl)acetyl)-2-(pyridin-2-ylmethyl)-2,6,7,8-tetrahydro-1H-pyrrolo[2,3-e][1,2,4]triazolo[4,3-a]pyridin-1-one] | 38 | 7
C[C@@H]1CN(CC(=O)N2CC(C)(C)c3c2cc(Cc2ccc(F)cc2)c2nn(Cc4ccncc4)c(=O)n32)[C@@H](CN2CCOC[C@H]2C)CN1 [Compound 254, 4-(4-fluorobenzyl)-8,8-dimethyl-6-(2-((2R,5R)-5-methyl-2-(((R)-3-methylmorpholino)methyl)piperazin-1-yl)acetyl)-2-(pyridin-4-ylmethyl)-2,6,7,8-tetrahydro-1H-pyrrolo[2,3-e][1,2,4]triazolo[4,3-a]pyridin-1-one] | 69 | 3.8
C[C@@H]1CN(CC(=O)N2CC(C)(C)c3c2cc(Cc2ccc(F)cc2)c2nc(N4CC5CC(C4)O5)nn32)[C@@H](CN2CCOC[C@H]2C)CN1 [Compound 189, 1-(2-(6-oxa-3-azabicyclo[3.1.1]heptan-3-yl)-4-(4-fluorobenzyl)-8,8-dimethyl-7,8-dihydro-6H-pyrrolo[2,3-e][1,2,4]triazolo[1,5-a]pyridin-6-yl)-2-((2R,5R)-5-methyl-2-(((R)-3-methylmorpholino)methyl)piperazin-1-yl)ethan-1-one] | 10 | 2
C[C@@H]1CN(CC(=O)N2CC(C)(C)c3c2cc(Cc2ccc(F)cc2)c2ncnn32)[C@@H](CN2CCC(C)(O)C[C@H]2C)CN1 (stereo partly drawn) [Compound 77, 1-(4-(4-fluorobenzyl)-8,8-dimethyl-7,8-dihydro-6H-pyrrolo[2,3-e][1,2,4]triazolo[1,5-a]pyridin-6-yl)-2-((2R,5R)-2-(((2R)-4-hydroxy-2,4-dimethylpiperidin-1-yl)methyl)-5-methylpiperazin-1-yl)ethan-1-one] | 70 | 5
C[C@@H]1CN(CC(=O)N2CC(C)(C)c3c2cc(Cc2ccc(F)cc2)c2ncnn32)[C@@H](CN2Cc3cnccc3C2=O)CN1 [Compound 96, 2-(((2R,5R)-1-(2-(4-(4-fluorobenzyl)-8,8-dimethyl-7,8-dihydro-6H-pyrrolo[2,3-e][1,2,4]triazolo[1,5-a]pyridin-6-yl)-2-oxoethyl)-5-methylpiperazin-2-yl)methyl)-2,3-dihydro-1H-pyrrolo[3,4-c]pyridin-1-one] | 52 | 5
C[C@@H]1CN(CC(=O)N2CC(C)(C)c3c2cc(Cc2ccc(F)cc2)c2nn(C4CCOCC4)c(=O)n32)[C@@H](CN2CCOC[C@H]2C)CN1 [Compound 190, 4-(4-fluorobenzyl)-8,8-dimethyl-6-(2-((2R,5R)-5-methyl-2-(((R)-3-methylmorpholino)methyl)piperazin-1-yl)acetyl)-2-(tetrahydro-2H-pyran-4-yl)-2,6,7,8-tetrahydro-1H-pyrrolo[2,3-e][1,2,4]triazolo[4,3-a]pyridin-1-one] | 14 | 3
C[C@@H]1CN(CC(=O)N2CC(C)(C)c3c2cc(Cc2ccc(F)cc2O)c2ncnn32)[C@@H](CN2CCOC[C@H]2C)CN1 [Compound 42, 1-(4-(4-fluoro-2-hydroxybenzyl)-8,8-dimethyl-7,8-dihydro-6H-pyrrolo[2,3-e][1,2,4]triazolo[1,5-a]pyridin-6-yl)-2-((2R,5R)-5-methyl-2-(((R)-3-methylmorpholino)methyl)piperazin-1-yl)ethan-1-one] | 100 | 13
C[C@@H]1CN(CC(=O)N2CC(C)(C)c3c2cc(Cc2ccc(F)cc2)c2nn(Cc4ccncn4)c(=O)n32)[C@@H](CN2CCOC[C@H]2C)CN1 [Compound 246, 4-(4-fluorobenzyl)-8,8-dimethyl-6-(2-((2R,5R)-5-methyl-2-(((R)-3-methylmorpholino)methyl)piperazin-1-yl)acetyl)-2-(pyrimidin-4-ylmethyl)-2,6,7,8-tetrahydro-1H-pyrrolo[2,3-e][1,2,4]triazolo[4,3-a]pyridin-1-one] | 4 | 3.5
C[C@@H]1CN(CC(=O)N2CC(C)(C)c3c2cc(Cc2ccc(F)cc2)c2nc(C(C)(C)O)nn32)[C@@H](CN2CCOC[C@H]2C)CN1 [Compound 137, 1-(4-(4-fluorobenzyl)-2-(2-hydroxypropan-2-yl)-8,8-dimethyl-7,8-dihydro-6H-pyrrolo[2,3-e][1,2,4]triazolo[1,5-a]pyridin-6-yl)-2-((2R,5R)-5-methyl-2-(((R)-3-methylmorpholino)methyl)piperazin-1-yl)ethan-1-one] | 190 | 12
C[C@@H]1CN(CC(=O)N2CC(C)(C)c3c2cc(Cc2ccc(F)cc2)c2nn(CC4(O)CCC4)c(=O)n32)[C@@H](CN2CCOC[C@H]2C)CN1 [Compound 262, 4-(4-fluorobenzyl)-2-((1-hydroxycyclobutyl)methyl)-8,8-dimethyl-6-(2-((2R,5R)-5-methyl-2-(((R)-3-methylmorpholino)methyl)piperazin-1-yl)acetyl)-2,6,7,8-tetrahydro-1H-pyrrolo[2,3-e][1,2,4]triazolo[4,3-a]pyridin-1-one] | 12.5 | 1.3
Cc1nnc2c(Cc3ccc(F)cc3)cc3c(n12)C(C)(C)CN3C(=O)CN1C[C@@H](C)NC[C@@H]1CN1CCOC[C@H]1C [Example 10, 1-(4-(4-fluorobenzyl)-1,8,8-trimethyl-7,8-dihydro-6H-pyrrolo[2,3-e][1,2,4]triazolo[4,3-a]pyridin-6-yl)-2-((2R,5R)-5-methyl-2-(((R)-3-methylmorpholino)methyl)piperazin-1-yl)ethan-1-one] | 350 | 27
C[C@@H]1CN(CC(=O)N2CC(C)(C)c3c2cc(Cc2ccc(F)cc2)c2nn(CC(O)C4CC4)c(=O)n32)[C@@H](CN2CCOC[C@H]2C)CN1 (stereo partly drawn) [Compound 270, 2-(2-cyclopropyl-2-hydroxyethyl)-4-(4-fluorobenzyl)-8,8-dimethyl-6-(2-((2R,5R)-5-methyl-2-(((R)-3-methylmorpholino)methyl)piperazin-1-yl)acetyl)-2,6,7,8-tetrahydro-1H-pyrrolo[2,3-e][1,2,4]triazolo[4,3-a]pyridin-1-one] | 51 | 11.5
C[C@@H]1CN(CC(=O)N2CC(C)(C)c3c2cc(Cc2ccc(F)cc2)c2nc(N)nn32)[C@@H](CN2CCOC[C@H]2C)CN1 [Example 30, 1-(2-amino-4-(4-fluorobenzyl)-8,8-dimethyl-7,8-dihydro-6H-pyrrolo[2,3-e][1,2,4]triazolo[1,5-a]pyridin-6-yl)-2-((2R,5R)-5-methyl-2-(((R)-3-methylmorpholino)methyl)piperazin-1-yl)ethan-1-one] | 16 | 3
C[C@@H]1CN(CC(=O)N2CC(C)(C)c3c2cc(Cc2ccc(F)cc2)c2nc(N(C)C=O)nn32)[C@@H](CN2CCOC[C@H]2C)CN1 [Compound 241, N-(4-(4-fluorobenzyl)-8,8-dimethyl-6-(2-((2R,5R)-5-methy 1-2-(((R)-3-methylmorpholino)methyl)piperazin-1-yl)acetyl)-7,8-dihydro-6H-pyrrolo[2,3-e][1,2,4]triazolo[1,5-a]pyridin-2-yl)-N-methylformamide] | 15 | 6.3
C[C@@H]1CN(CC(=O)N2CC(C)(C)c3c2cc(Cc2ccc(F)cc2)c2nc(C(N)=O)cn32)[C@@H](CN2CCOC[C@H]2C)CN1 [Example 20, 4-(4-fluorobenzyl)-8,8-dimethyl-6-(2-((2R,5R)-5-methyl-2-(((R)-3-methylmorpholino)methyl)piperazin-1-yl)acetyl)-7,8-dihydro-6H-imidazo[1,2-a]pyrrolo[2,3-e]pyridine-2-carboxamide] | 110 | 13
